Reference: US20230048901A1, “SOLID ORAL FORMULATION OF UTIDELONE” (Beijing Biostar Pharmaceuticals Co., Ltd., priority 2020, published 2023)

Assay: Solubility of Utidelone in water and organic solvents
Format: physicochemical
Experimental: The saturated solubility in water is less than 1 μg/ml, so it is difficult to develop into an oral formulation with suitable bioavailability. At present, the marketed epothilone antitumor drugs such as Utidelone injection and Ixabepilone injection etc., all of which use non-aqueous solvents such as ethanol and polyoxyl castor oil as solvents, are diluted with sodium chloride injection for administration by intravenous infusion. Since polyoxyl castor oil is a strong allergenic substance, antiallergic treatment must be given before intravenous administration, which reduces the compliance of this type of drug in clinical use, increases the adverse reactions of patients, and limits its clinical application.

In the case of `C/C1=C/CC(/C(C)=C/c2csc(C)n2)OC(=O)C[C@H](O)C(C)(C)C(=O)[C@H](C)[C@@H](O)[C@@H](C)CCC1` (stereo partly drawn) [Utidelone, 4,8-dihydroxy-5,5,7,9,13-pentamethyl-16-[1-methyl-2-(2-methyl-thiazole-4-yl)-vinyl]-hexadecoxetane-13-en-2,6-one lactone], the “solubility in organic solvents” value (ethanol, methanol, ethyl acetate, chloroform) is reported as “easily soluble”, the “solubility in water” value (water) is reported as “insoluble in water” and the solubility (water, read-out: saturated solubility in water) is reported as under 1 µg/mL.
